Experimental data as given in patent publication US20050214412A1, “APPARATUS AND METHOD FOR DELIVERING NUTRITIONAL SUPPLEMENTS WITH BEVERAGE SWEETENERS” (priority 2004, published 2005).

Assay: Proton NMR stability check in deuterium oxide after heating and after sunlight exposure
Type: physicochemical
Details: with table sugar, Equal, Sweet'N Low and Splenda
Method: All ^1H NMR spectra were obtained on a Varian Mercury 300 NMR spectrometer operating at ambient temperature. Solutions were prepared in deuterium oxide solvent (isotopically labeled water). Samples were prepared by dissolving a measured amount of solid in sufficient solvent to produce a total volume of approximately 1 mL. Initial samples were prepared just before spectra were obtained in order to minimize possible premature hydrolysis or attack by microbes in the case of sugar solutions. Samples were later re-examined after heating at 70.0 to 92.0° C. (158 to 198° F.) for 98 minutes and then again after being stored outside on the roof exposed to Central Florida sunlight and heat for 47.3 hours.

chemical compatibility with sweeteners: chemically compatible
SMILES: O=C1O[C@H]([C@@H](O)CO)C(O)=C1O [Vit. C, ascorbic acid]
